Laboratory results from PMC10913476, “A high-throughput target-based screening approach for the identification and assessment of Mycobacterium tuberculosis mycothione reductase inhibitors” (Microbiology Spectrum, 2024).
In brackets after ≈: the same amount, converted by molar mass. Read-outs that look alike come from different tables or passages of the source.

Assays:
[1] = biological target: Mycobacterium tuberculosis mycothione reductase (MtrMtb) (Mycobacterium tuberculosis, UniProt P9WHH3); test: MtrMtb luminescence-coupled enzymatic assay, confirmation screen (11-point dose-response); type: biochemical
[2] = RAW264.7 cytotoxicity (CellTiter-Glo); type: cell-based, murine; details: mouse, RAW264.7 macrophage-like cells
Experimental: The RAW264.7 cell line was cultured in DMEM supplemented with 10% FBS, 2-mM L-glutamine, 100-U/mL penicillin and 100-µg/mL streptomycin at 37°C and 5% CO2. Cells were seeded on black, clear-bottom 96-well plates at 2.5 × 10^5 cells/mL. Test compounds and reference compounds (BDQ and tamoxifen) were added in nine twofold serial dilutions in 100% DMSO with a top concentration of 25 µM. The plate setup included high (no growth inhibition) and low (100% growth inhibition) controls in columns 12 and 1, respectively. Medium without cell suspension was added to the low control wells. Final DMSO concentration reached 1% for test and control wells. Plates were incubated for 60 hours at 37°C and 5% CO2. Before adding the readout reagent, plates were equilibrated at room temperature for 30 min. The CellTiter-Glo version 2.0 Assay (Promega, cat. #G7572) was then added to test wells in a 1:1 ratio and mixed for 2 min on an orbital shaker. The plate was incubated for 10 min at RT to stabilize the luminescent signal. The luminescence was recorded using Glomax Discover microplate reader (Promega). Cell viability was determined by normalization of the recorded signal and establishment of the 50% cytotoxicity concentration based on the non-linear regression curve analysis (GraphPad Prism version 9). The assay was performed in duplicate in two independent experiments.

Mtb H37Ra^lux = test: microbe, parasite or virus in culture; type: cell-based, Mycobacterium tuberculosis; details: for MIC50: Mycobacterium tuberculosis, H37RA
[3] = tested on: Mtb H37Ra^lux in RAW264.7 murine macrophages; test: microbe, parasite or virus in culture; type: cell-based, Mycobacterium tuberculosis; details: for MIC50: Mycobacterium tuberculosis, H37RA, 60 h
[4] = morpholine series, average IC50 in the confirmation screen (dose-response), unit not in this head, µM, read-out: qIC50 (MtrMtb)
[5] = morpholine series, acute cellular toxicity, unit not in this head
[6] = read-out: MIC50 (Mtb H37Ra^lux)
[7] = read-out: RAW264.7 MIC50 (Mtb H37Ra^lux)
[8] = sulfonylamine series, fragment molecules, reference compounds, read-out: IC50 (µM) MtrMtb
[9] = sulfonylamine series, fragment molecules, reference compounds
[10] = read-out: MIC50 (µM) Mtb H37Ra^lux
[11] = read-out: RAW264.7 MIC50 (µM) (Mtb H37Ra^lux)

Sequence of Mycobacterium tuberculosis mycothione reductase (MtrMtb) (P9WHH3 whole entry): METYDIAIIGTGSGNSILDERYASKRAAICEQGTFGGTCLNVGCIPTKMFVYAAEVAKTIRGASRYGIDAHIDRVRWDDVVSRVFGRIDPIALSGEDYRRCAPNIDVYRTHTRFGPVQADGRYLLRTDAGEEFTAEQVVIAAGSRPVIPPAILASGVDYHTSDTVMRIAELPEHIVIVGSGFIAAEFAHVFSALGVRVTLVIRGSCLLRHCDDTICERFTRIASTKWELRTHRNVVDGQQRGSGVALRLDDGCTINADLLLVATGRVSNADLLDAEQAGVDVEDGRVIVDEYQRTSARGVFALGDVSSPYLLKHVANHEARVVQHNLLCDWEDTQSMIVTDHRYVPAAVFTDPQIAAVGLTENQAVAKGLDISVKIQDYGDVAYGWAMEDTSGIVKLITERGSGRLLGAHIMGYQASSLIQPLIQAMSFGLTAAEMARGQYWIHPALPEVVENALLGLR

| SMILES | IC50 [1, 4] | CC50 at 60 h [2, 5] | anti-mycobacterial activity in whole-cell assay (Mtb H37Ra^lux MIC50), in words (Mtb H37Ra^lux) | MIC50 (Mtb H37Ra^lux; [6]) | intracellular activity in macrophage infection assay, in words [3] | MIC50 [3, 7] | IC50 [1, 8] | CC50 at 60 h [2, 9] | MIC50 (Mtb H37Ra^lux; [10]) | MIC50 [3, 11] |
| --- | --- | --- | --- | --- | --- | --- | --- | --- | --- | --- |
| C[C@H]1COCCN1c1nc2c(c(-c3cc4ccccc4o3)n1)CCNCC2 [Respiri-1079] | 1.99 µM | 11 µM | activity | 5.7 µM (≈ 2.08 µg/mL) | Intracellular activity was detected | 12.2 µM (≈ 4.44 µg/mL) |  |  |  |  |
| CCCNc1cc(Oc2ccc(NS(=O)(=O)c3ccc(C)cc3)c(C(=O)O)c2)ccc1NS(=O)(=O)c1ccc(C)cc1 [Respiri-1179] |  |  |  |  |  |  | 1.13 µM | > 50 µM | > 25 µM | > 25 µM |
| CCN(CC)c1cc(Oc2ccc(NS(=O)(=O)c3ccc(C)cc3)c(C(=O)O)c2)ccc1NS(=O)(=O)c1ccc(C)cc1 [Respiri-1180] |  |  |  |  |  |  | 2.38 µM | > 50 µM | > 25 µM |  |
| C[C@H]1COCCN1c1nc2c(c(-c3csc4ccccc34)n1)CCNCC2 [Respiri-1093] | 6.22 µM | > 25 µM | activity | 9.94 µM (≈ 3.78 µg/mL) |  | > 25 µM |  |  |  |  |
| CC/C(=C(\c1ccccc1)c1ccc(OCCN(C)C)cc1)c1ccccc1 [Tamoxifen, reference compound] |  |  |  |  |  |  |  | 4.54 µM |  |  |
| C[C@H]1COCCN1c1nc2c(c(-c3ccc(Cl)cc3)n1)CCNCC2 [Respiri-1078] | 4.47 µM | 13.7 µM | activity | 11.9 µM (≈ 4.26 µg/mL) | Intracellular activity was detected | 14.1 µM (≈ 5.05 µg/mL) |  |  |  |  |
| CCCCNc1cc(Oc2ccc(NS(=O)(=O)c3ccc(C)cc3)c(C(=O)O)c2)ccc1NS(=O)(=O)c1ccc(C)cc1 [Respiri-1181] |  |  |  |  |  |  | 1.66 µM | > 50 µM | > 25 µM | > 25 µM |
| C[C@H]1COCCN1c1nc2c(c(-c3ccc(F)cc3)n1)CCNCC2 [Respiri-1077] |  | > 25 µM |  | > 25 µM |  | > 25 µM |  |  |  |  |
| COc1cccc(-c2nc(N3CCOC[C@@H]3C)nc3c2CCNCC3)c1 [Respiri-1076] |  | > 25 µM |  | > 25 µM |  | > 25 µM |  |  |  |  |
| Cc1ccn(-c2ncccn2)c(=O)c1C#N [Respiri-1211] |  |  |  |  |  |  | 13 µM | > 50 µM | > 25 µM | > 25 µM |
| C[C@H]1COCCN1c1nc2c(c(-c3ccc4ccccc4c3)n1)CCNCC2 [Respiri-1082] | 3.03 µM | 9.69 µM | activity | 4.02 µM (≈ 1.51 µg/mL) | Intracellular activity was detected | 7.16 µM (≈ 2.68 µg/mL) |  |  |  |  |
| COc1nc2ccc(Br)cc2cc1[C@@H](c1ccccc1)[C@@](O)(CCN(C)C)c1cccc2ccccc12 [Bedaquiline, reference compound] |  |  |  |  |  |  |  | > 50 µM | 0.01 µM (≈ 0.00556 µg/mL) |  |
| C[C@H]1COCCN1c1cc(-c2cc3ccccc3s2)c2c(n1)CCNCC2 [Respiri-1084] | 2.88 µM | 11.9 µM |  | > 25 µM | Intracellular activity was detected | 10.2 µM (≈ 3.88 µg/mL) |  |  |  |  |
| C[C@H]1COCCN1c1nc2c(c(-c3ccnc4ccccc34)n1)CCNCC2 [Respiri-1083] | 2.34 µM | > 25 µM |  | > 25 µM |  | > 25 µM |  |  |  |  |
| C[C@H]1COCCN1c1nc2c(c(-c3ccc4ncccc4c3)n1)CCNCC2 [Respiri-1081] | 3.75 µM | > 25 µM |  | > 25 µM |  | > 25 µM |  |  |  |  |
| Cn1ccnc1C(=O)c1nccn1C [Respiri-1210] |  |  |  |  |  |  | 6.11 µM | > 50 µM | > 25 µM | > 25 µM |
| O=C1C=CC(=O)N1Cc1ccc2c(c1)OCO2 [Respiri-1208] |  |  |  |  |  |  | 4.83 µM | 15.2 µM | > 25 µM |  |
| CN1C(=O)C2N=CNC2N(C)C1=O (centres unmarked) [Respiri-1209] |  |  |  |  |  |  | 5.63 µM | > 50 µM | > 25 µM | > 25 µM |
| C[C@H]1COCCN1c1nc2c(c(-c3ccc4c(c3)OCO4)n1)CCNCC2 [Respiri-1080] | 5.98 µM | > 5 µM |  | > 25 µM |  | > 25 µM |  |  |  |  |
| CNc1cc(Oc2ccc(NS(=O)(=O)c3ccc(C)cc3)c(C(=O)O)c2)ccc1NS(=O)(=O)c1ccc(C)cc1 [Respiri-1075] |  |  |  |  |  |  |  |  | > 25 µM | > 25 µM |
| CCNc1cc(Oc2ccc(NS(=O)(=O)c3ccc(C)cc3)c(C(=O)O)c2)ccc1NS(=O)(=O)c1ccc(C)cc1 [Respiri-1031] |  |  |  |  |  |  | 2.16 µM |  | > 25 µM | > 25 µM |
